For one series, the target named is Toll-like receptor 1/2 (Mus musculus, UniProt Q9EPQ1+Q9QUN7). Kind of series: (§1) Antagonist activity at TLR1/2 in mouse RAW264.7 cells assessed as inhibition of Pam3CSK4-induced receptor activation by measuring NO production after 24 hrs. The series is classed as cell-based.
Series [1] deals with T1, Toll-like receptor 1/2 (Mus musculus) (UniProt Q9QUN7+Q9EPQ1). Kind of series: Antagonist activity at TLR1/2 in mouse RAW264.7 cells assessed as inhibition of Pam3CSK4-induced receptor activation by measuring NO production at 3 uM after 24 hrs. The series is classed as cell-based.
Series [2] can be described thus: Cytotoxicity against mouse RAW264.7 cells assessed as decrease in cell viability at 3 uM by MTT assay. The class given is cell-based. The note with it: raw264.7, 3 µM.
For series [3], the target named is T1, Toll-like receptor 1/2 (Mus musculus). The description is as §1. The series is classed as cell-based.
Series [4] in a line: Cytotoxicity against mouse RAW264.7 cells assessed as decrease in cell viability at 8 uM by MTT assay. The series is classed as cell-based. The note with it: raw264.7, 8 µM.
Series [5] deals with RAW264.7. The experiment in a line: Inhibition of Pam3CSK4-induced IL-1beta production in mouse RAW264.7 cells at 8 uM after 24 hrs by ELISA. The class given is functional, cell-based.
The test system of series [6] is RAW264.7. Kind of series: Inhibition of Pam3CSK4-induced TNF-alpha production in mouse RAW264.7 cells at 8 uM after 24 hrs by ELISA. The series is classed as functional, cell-based. A general note: An ELISA detects its analyte on a solid surface through an enzyme-linked reagent.
Series [7] concerns the target Toll-like receptor 1/2 (Homo sapiens) (UniProt O60603+Q15399). Kind of series: Antagonist activity at TLR1/2 in primary microglial cells (unknown origin) assessed as reduction in Pam3CSK4-induced IL-1beta mRNA expression level after 2 hrs. The series is classed as cell-based.
Series [8] can be described thus: Antiinflammatory activity in hippocampus (unknown origin) assessed as inhibition of Pam3CSK4-induced IL-1beta mRNA expression level at 5 to 50 ng coadministered with Pam3CSK4 via intra-cisterna magna measured after 2 hrs by RT-PCR analysis. The class given is functional.
Series [9] in a line: Antiinflammatory activity in hippocampus (unknown origin) assessed as inhibition of Pam3CSK4-induced TNF-alpha mRNA expression level at 5 to 50 ng coadministered with Pam3CSK4 via intra-cisterna magna measured after 2 hrs by RT-PCR analysis. The series is classed as functional.
A short description of series [10]: Antiinflammatory activity in hippocampus (unknown origin) assessed as inhibition of Pam3CSK4-induced IL-6 mRNA expression level at 5 to 50 ng coadministered with Pam3CSK4 via intra-cisterna magna measured after 2 hrs by RT-PCR analysis. The series is classed as functional.

The structures appear in SMILES notation. The source made the active and inactive calls. The calls are words filed in the database; no cut-off is given here.

Chain of Toll-like receptor 1/2 (Q9QUN7 whole entry): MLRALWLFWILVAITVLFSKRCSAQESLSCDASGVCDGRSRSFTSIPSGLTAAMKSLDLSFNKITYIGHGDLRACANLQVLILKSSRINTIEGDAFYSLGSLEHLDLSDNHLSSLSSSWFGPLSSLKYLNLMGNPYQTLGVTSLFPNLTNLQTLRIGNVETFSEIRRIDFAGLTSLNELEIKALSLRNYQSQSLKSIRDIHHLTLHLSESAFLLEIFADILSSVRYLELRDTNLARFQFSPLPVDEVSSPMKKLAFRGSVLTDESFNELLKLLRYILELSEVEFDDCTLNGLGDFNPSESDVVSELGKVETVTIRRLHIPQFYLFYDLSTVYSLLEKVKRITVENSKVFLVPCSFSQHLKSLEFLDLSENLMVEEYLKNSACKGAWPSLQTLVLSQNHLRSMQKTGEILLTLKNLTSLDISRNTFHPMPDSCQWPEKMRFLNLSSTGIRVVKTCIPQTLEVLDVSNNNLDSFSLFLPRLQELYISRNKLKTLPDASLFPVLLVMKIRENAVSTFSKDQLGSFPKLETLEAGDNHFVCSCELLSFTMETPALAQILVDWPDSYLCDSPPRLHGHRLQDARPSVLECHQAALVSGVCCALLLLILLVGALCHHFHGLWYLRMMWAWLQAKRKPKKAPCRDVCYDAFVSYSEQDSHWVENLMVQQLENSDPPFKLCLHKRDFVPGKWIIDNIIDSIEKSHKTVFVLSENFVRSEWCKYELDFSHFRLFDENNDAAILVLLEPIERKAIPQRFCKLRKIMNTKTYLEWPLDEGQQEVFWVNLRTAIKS
Chain of Toll-like receptor 1/2 (Q9EPQ1 whole entry): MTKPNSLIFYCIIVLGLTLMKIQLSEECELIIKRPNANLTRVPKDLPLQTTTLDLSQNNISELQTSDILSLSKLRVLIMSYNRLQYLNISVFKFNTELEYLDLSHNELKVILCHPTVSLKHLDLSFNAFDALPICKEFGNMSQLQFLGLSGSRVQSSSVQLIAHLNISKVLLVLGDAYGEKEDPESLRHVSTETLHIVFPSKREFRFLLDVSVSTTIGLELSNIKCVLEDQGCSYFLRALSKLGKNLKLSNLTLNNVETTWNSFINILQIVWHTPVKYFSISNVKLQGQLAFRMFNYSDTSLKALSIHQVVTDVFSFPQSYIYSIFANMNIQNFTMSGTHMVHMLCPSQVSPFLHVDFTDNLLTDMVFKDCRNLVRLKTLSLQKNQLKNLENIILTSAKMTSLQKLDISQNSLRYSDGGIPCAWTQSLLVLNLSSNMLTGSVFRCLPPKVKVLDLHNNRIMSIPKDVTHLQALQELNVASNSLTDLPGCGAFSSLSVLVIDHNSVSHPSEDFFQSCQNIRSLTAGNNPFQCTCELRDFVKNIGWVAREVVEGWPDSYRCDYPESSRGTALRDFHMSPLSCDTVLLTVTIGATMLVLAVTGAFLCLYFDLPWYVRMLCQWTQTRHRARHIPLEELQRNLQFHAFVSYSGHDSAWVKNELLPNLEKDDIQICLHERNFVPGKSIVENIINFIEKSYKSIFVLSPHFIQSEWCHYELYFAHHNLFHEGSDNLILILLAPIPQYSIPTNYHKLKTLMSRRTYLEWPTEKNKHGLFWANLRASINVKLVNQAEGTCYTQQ

As to `CCOC(=O)c1cc(O)c(=O)c2c(O)c(O)c(OC)cc2c1`, at Toll-like receptor 1/2, the IC50 came out at 2830 nM.
As for `COc1cc2c(c(OC)c1OC)C(=O)C1(OC)C=CC2C2C(=O)OC(=O)C21` (stereo not given), the half-maximal inhibitory concentration (IC50) on Toll-like receptor 1/2 came to 74600 nM.
As to `COc1cc2cc(C(=O)OC(C)C)cc(O)c(=O)c2c(O)c1O`, the IC50 on Toll-like receptor 1/2 was found to be 2470 nM.
For `CC(=O)Oc1cc2c(c(OC(C)=O)c1OC(C)=O)C(=O)C1(OC(C)=O)C=CC2C2C(=O)OC(=O)C21` (stereo not given), the concentration for half-maximal inhibition (IC50) at Toll-like receptor 1/2 was 14800 nM.
For `CC(=O)Oc1cc2cccc(O)c(=O)c2c(O)c1O`, the half-inhibitory concentration (IC50) on Toll-like receptor 1/2 came out at 4830 nM.
Turning to `C=C(C)[C@H]1Cc2c(ccc3c2O[C@@H]2COc4cc(OC)c(OC)cc4[C@@H]2C3=O)O1` [ROTENONE], the inhibition in series [1] is above 70%. In series [2], the Activity entry is recorded as “Non-Toxic”.
As for `CCCCOC(=O)c1cc(O)c(=O)c2c(O)c(O)c(OC)cc2c1`, the IC50 on Toll-like receptor 1/2 stood at 2830 nM.
On the same count and under the same terms, the value for `CC(=O)Oc1cc2cccc(OC(C)=O)c(=O)c2c(OC(C)=O)c1OC(C)=O` was 2350 nM.
Regarding `O=c1c(O)cccc2cc(O)c(O)c(O)c12` [PURPUROGALLIN], in series [1], the inhibition was above 70%. Further, the Activity entry in series [2] is recorded as “Non-Toxic”.
Take `O=C(Nc1ccc(Cl)c(Cl)c1)Nc1ccccc1O`: the inhibition in series [1] was above 70%. The Activity result in series [2] is “Non-Toxic”.
For the compound `Cc1cc(O)c(O)c2c(=O)c(O)cccc12`, the IC50 on Toll-like receptor 1/2 was determined as 3130 nM.
Same read-out and setting: the same measure for `COC(=O)c1cc(O)c(=O)c2c(O)c(O)ccc2c1` [METHYL 7-DESHYDROXYPYROGALLIN-4-CARBOXYLATE]: 9010 nM.
On the same count and under the same terms, the value for `CCCCCCCCCCCCCCOC(=O)c1cc(O)c(=O)c2c(O)c(O)c(OC)cc2c1` was 3240 nM.
Turning to `COc1cc2cccc(OC)c(=O)c2c(O)c1OC`, on Toll-like receptor 1/2, the half-inhibitory concentration (IC50) came out at 11700 nM.
For `CCCCCCOC(=O)c1cc(O)c(=O)c2c(O)c(O)c(OC)cc2c1`, the inhibition is above 70% in series [1], “Dose-dependent effect” in series [3] and “Dose-dependent effect” in series [7]. Moreover, in [4], the Activity entry is listed as “Non-Toxic”. In addition, the inhibition entry (in the series on RAW264.7 [5]; in the series with RAW264.7 [6]; in [8]; in series [9]; in series [10]) was “Active” throughout.
For `CC(=O)/C=C/Nc1ccccc1O`, the inhibition in [1] was above 70%. Moreover, in [2], the Activity result is recorded as “Non-Toxic”.
Turning to `CCCCNC(=O)c1cc(O)c(=O)c2c(O)c(O)c(OC)cc2c1`, at Toll-like receptor 1/2, the concentration for half-maximal inhibition (IC50) stood at 1260 nM.
With `Oc1ccc(/N=C/c2c(O)ccc3ccccc23)cc1`, the inhibition in [1] was above 70%. For the same compound, the Activity result in [2] was “Non-Toxic”.
`O=[N+]([O-])c1cc(Cl)cc2c1nc(NCCO)c1ccccc12`: the inhibition in [1] was above 70%. Also, the Activity entry in [2] is recorded as “Non-Toxic”.
For `O=C(O)c1cc(O)c(=O)c2c(O)c(O)ccc2c1` [7-DESHYDROXYPYROGALLIN-4-CARBOXYLIC ACID], the half-inhibitory concentration (IC50) at Toll-like receptor 1/2 was 16500 nM.
As to `O=c1c(O)cccc2ccc(O)c(O)c12`, the IC50 at Toll-like receptor 1/2 worked out at 2250 nM.
For `O=C(/C=C/c1ccc(O)c(O)c1)c1ccccc1O`, in series [1], the inhibition was above 70%. Besides, in series [2], the Activity entry is listed as “Non-Toxic”.
Take `COc1cccc(NC(S)=Nc2ccc(O)cc2)c1`: in series [1], the inhibition is above 70%. Also, in series [2], the Activity result is reported as “Non-Toxic”.
Turning to `CCCCCCCCCCOC(=O)c1cc(O)c(=O)c2c(O)c(O)c(OC)cc2c1`, the concentration for half-maximal inhibition (IC50) on Toll-like receptor 1/2 was 1010 nM.
For `CCCCCCCCOC(=O)c1cc(O)c(=O)c2c(O)c(O)c(OC)cc2c1`, at Toll-like receptor 1/2, the IC50 was determined as 720 nM.
Consider `O=c1c(O)cccc2cc(F)c(O)c(O)c12`, for which the IC50 on Toll-like receptor 1/2 was determined as 22700 nM.
Same read-out and setting: the value for `CC(=O)Oc1cc2cccc(OC(C)=O)c(=O)c2c(O)c1OC(C)=O` was 1420 nM.
For the compound `CN1CCN(C(=O)/C=C/c2ccc([N+](=O)[O-])o2)CC1`, in series [1], the inhibition was above 70%. The Activity entry in series [2] was “Non-Toxic”.

Broadly, the IC50 is the midpoint of a concentration-inhibition curve. A word on the inhibition: it is the drop in the measured response relative to a control, in per cent.

The values are drawn from ChEMBL document CHEMBL3880440, “Antagonists of the toll-like receptor 1/2 complex” (2014).
